Measurements as given in US20030211469A1, “Inhibiting hepatitis c virus processing and replication” (priority 2003, published 2003).
Read-outs that look alike come from different tables or passages of the source.

Key:
HCV NS2/3 (810-1615BK) [1] = molecular target: T1, HCV NS2/3 (810-1615BK) (Hepatitis C virus genotype 1b, UniProt P26663); format: biochemical, Hepatitis C virus (BK strain); conditions: for NS2/3 Processed (% of Control): 5 mM final concentration of nucleoside analog; for inhibition at the maximum concentration tested: 5 mM; for inhibition at the maximum concentration tested / IC50: residual ATP approximately 1 mM; for IC50: titration, read-out: IC50, inhibition of NS2/3 processing
T1 construct: HCV residues 810-1615 of the BK strain; made in house; host or cells: in vitro translation in rabbit reticulocyte lysate from plasmid pCITE 810-1615BK
Protocol: (§1) HCV residues 810-1615 of the BK strain, which includes all of NS2 and most of NS3 (termed 810-1615BK), was produced from the plasmid pCITE 810-1615BK (a gift from Dr. Nicola La Monica) and has been described previously by Pieroni, et al., (1997) J. Virol. 71, 6373. Following plasmid linearization with BLP1, RNA was transcribed with T7 RNA polymerase and purified. Protein translation was in rabbit reticulocyte lysate, 30° C. for 40 minutes using [^35S]-methionine as a label. Translation was then blocked by the addition of cycloheximide (250 μM final) and the samples were immediately frozen on dry ice.
(§2) Prior to processing experiments, an aliquot of translated NS2/3 was thawed on ice. Processing of 810-1615BK was initiated by addition to room temperature solutions containing Triton X-100 at 1%, as described by Pieroni, et al., (1997) J. Virol. 71, 6373. The distribution of [^35S]-labeled proteins on dried gels was determined with a Phosphorimager (Molecular Dynamics). Product bands were quantified and expressed as a proportion of total signal in the gel lane so that variations in gel lane loading were normalized.

[2] = molecular target: T2, NS2/3 fusion protein Ubi-849-1207J-BLA (UniProt P26662+P62593, S1165A); assay: Processing of NS2/3 fusion protein Ubi-849-1207J-BLA in reticulocyte lysate; format: biochemical, Hepatitis C virus (J strain)
T2 construct: NS2/3 residues 849-1207 (J strain); ubiquitin (N, cleaved yes); made in house; host or cells: in vitro translation in rabbit reticulocyte lysate from plasmid pM3A
Source text: The plasmid pM3A, derived from pCDNA (Invitrogen), encodes a fusion protein termed Ubi-849-1207J-BLA that contains ubiquitin at its N-terminus, followed by NS2/3 residues 849-1207 (J strain) linked to bacterial TEM-1 β-lactamase at the C-terminus. […] RNA synthesis for this construct is driven by the T7 promoter, and RNA was separately prepared for translation as in Example 1. Upon translation in rabbit reticulocyte lysate, the ubiquitin is immediately cleaved from the protein by cellular ubiquitin hydrolases. (Hochstrasser, (1996) Annual Review of Genetics 30, 405.)
The cleavable linkage (SEQ. ID. NO. 1) is present as ubiquitin↓ArgHisGlySerGluPhe-NS2/3. […] Translations were limited to 30 minutes for that reason. Quantification of processing at room temperature was by comparison of samples prepared immediately after addition of cycloheximide with later time samples.

[3] = tested on: ubiquitin-ubiquitin-ubiquitin-NS2/3-β-lactamase in Jurkat cells; assay: Cell-based NS2/3 cleavage assay, Jurkat cells, β-lactamase/CCF2 readout; parameters: species or system Hepatitis C virus; conditions: for IC50: read-out: IC50, NS2/3 cleavage in cells, 5 hours treatment, 460 nm/530 nm ratio
Protocol: Inhibitor treatment was for 5 hours, followed by addition of cycloheximide to stop protein synthesis (30 minutes) and subsequent addition of the β-lactamase substrate, CCF2. After 2 hours, β-lactamase activity was quantified by fluorescence readings (460 nm/530 nm ratio). Lower 460 nm/530 nm ratios indicate inhibition of NS2/3 cleavage.
Through the use of a neomycin-selectable transfection vector, stable expression of NS2/3 in Jurkat cells was obtained. The plasmid pUbBla3X-NS2/3-3A conferring neomycin (G418) resistance, expresses a fusion of the NS2/3 protein with 3 ubiquitin domains appended to the N-terminus and β-lactamase at the C-terminus. The complete uncleaved protein has an in vivo half-life estimated to be 5-10 minutes.
The plasmid pUbBla3X NS2/3-3A was transfected into Jurlcat cells. The CMV promoter-driven ORF of the plasmid encodes a 91 kDa protein, ubiquitin-ubiquitin-ubiquitin-NS2/3-β-lactamase, with the C-termini of the 3 ubiquitin domains rendered non-cleaveable to ubiquitin-C-terminal hydrolases (ubiquitin C-terminal sequence ArgLeuArgGlyVal, SEQ. ID. NO. 2). The NS2/3 region includes HCV residues 849-1207. The β-lactamase domain is TEM-1 from E. coli. Expression of the P-lactamase moiety is readily detected with the fluorogenic, cell-penneant substrate, CCF2. (Zlokarnik, et al., (1998) Scienice 279, 84.) Transfectants were sorted by FACS using treatment with CCF2 to indicate β-lactamase expression (Zlokarnik, et al., (1998) Science 279, 84), and individual clones were grown under G418 selection. The full fusion protein expressed is highly unstable to ubiquitin-directed proteosomal degradation due to its ubiquitin N-terminal tag, while the C-terminal product of NS2/3 cleavage, NS3-β-lactamase, is stable for hours. Thus, build-up in the cells of O-lactamase activity, as indicated by CCF2 hydrolysis (high 460 nm1530 nm ratio) is indicative of successful NS2/3 cleavage, and suppression of P-lactamase activity indicates NS2/3 inhibition.
(See, Grakoui, et al., (1993) P.N.A.S. USA 90, 10583, Selby, et al., (1993) J. Gen. Virol. 74, 1103, fijikata, et al., (1993) J. Virol. 67, 4665, Santolini, et al., (1995) J. Viol. 69, 7461, D'Souza, et al., (1994) J. Gen. Virol. 75, 3469, and Pieroni, et al., (1997) J. Virol. 71, 6373.) NS2/3 self-cleavage separates the destabilizing ubiquitin degradation signal at the N-terminus from the NS3-O-lactamase C-terminal product, thus stabilizing the β-lactamase activity within the cell.

HCV NS2/3 (810-1615BK) [4] = format: biochemical, Hepatitis C virus (BK strain); conditions: for NS2/3 Processed (% of Control): present during synthesis and processing, 30 minutes
Protocol: as §1, §2
NS2/3 processing reactions were performed with 810-1615BK. […] (Darke, et al., (1999) J. Biol. Chem. 274, 34511.) Inhibitors were dissolved in DMSO and protected from light. Dilutions were in DMSO, such that the final concentration of DMSO was 2% for in vitro experiments and 1% for cell-based assays. […] (Hu, et al., (1996) P.N.A.S. USA 93, 1060; Thulasiraman, et al., (1996) Biochemistry 35, 13443 (1996), Schneider, et al., (1996) P.N.A.S. USA 93, 14536.)
to the data, where a is the minimal level of fractional activity (tending to 0), a+b is the maximal level (tending to 1), x is the concentration of inhibitor, c is the IC50 and d is a slope coefficient. […] Values given are the average of two determinations.

[5] = titration, 810-1615BK, average of two determinations

Structure (SMILES)	NS2/3 Processed (% of Control) (HCV NS2/3 (810-1615BK) [1])	inhibition at the maximum concentration tested (HCV NS2/3 (810-1615BK) [1]) [%]	IC50 (HCV NS2/3 (810-1615BK) [1]) [µM]	inhibition at the highest concentrations tested [3]	IC50 [3] [µM]	further results
Nc1ncnc2c1ncn2[C@@H]1O[C@H](COP(=O)(O)OP(=O)(O)NP(=O)(O)O)[C@@H](O)[C@H]1O [AMP-PNP]	40 % of Control	60	4000			
Nc1ncnc2c1ncn2[C@@H]1O[C@H](COP(=O)(O)OP(=O)(O)OP(O)(O)=S)[C@@H](O)[C@H]1O [ATPγS]	24 % of Control	77	2000			Inhibition of NS2/3 processing, J-strain fusion protein [2]: Inhibition by ATPγS was also observed
COC1=C2C[C@@H](C)C[C@H](OC)[C@H](O)[C@@H](C)/C=C(\C)[C@H](OC(N)=O)[C@@H](OC)/C=C\C=C(/C)C(=O)NC(=CC1=O)C2=O [Geldanamycin]				nearly complete	0.04	
CO[C@H]1[C@@H](OC)C[C@H](C)[C@@H](OC)C2=CC(=O)C=C(NC(=O)/C(C)=C/C=C\[C@H](OC)[C@@H](OC(N)=O)/C(C)=C/[C@@H]1C)C2=O [Herbimycin A, herbimycin A]						NS2/3 Processed (% of Control) (HCV NS2/3 (810-1615BK) [4]; 1 μM): 38 % of Control; NS2/3 Processed (% of Control) (HCV NS2/3 (810-1615BK) [4]; 10 μM): 22 % of Control
C[C@@H]1C[C@H]2O[C@@H]2/C=C\C=C\C(=O)Cc2c(Cl)c(O)cc(O)c2C(=O)O1 [Radicicol]				nearly complete	0.013	EC50 (HCV NS2/3 (810-1615BK) [4]; [5]): 0.22 ± 0.12 µM; Maximum Inhibition (%) (HCV NS2/3 (810-1615BK) [4]; [5]): 51%
